# Assay results taken from patent publication US9113629B2, “4-amino-6-(4-substituted-phenyl)-picolinates and 6-amino-2-(4-substituted-phenyl)-pyrimidine-4-carboxylates and their use as herbicides” (DOW AGROSCIENCES LLC, priority 2013, dated 2015).
# Test system: Key Broadleaf Weed and Crop Species
# Assay: Post-emergent Test II herbicidal activity (Table 5)
# Assay type: in vivo
# Settings: post-emergence, 336 h; ABUTH: velvetleaf (Abutilon theophrasti); application rate 70 g ai/ha; post-emergent; 14 days after application; read-out: Visual Growth Reduction (%) 14 Days After Application, ABUTH
# How it was run: (§1)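 Compounds, dissolved in 97:3 acetone/DMSO and diluted into an aqueous carrier containing crop oil concentrate and Triton X-155, are applied over the top of young plants at 187 L/ha. Injury is scored visually at 14 d, 0% meaning no effect and 100% complete kill.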
row,SMILES,pest or weed control at 70 g/ha
1,Nc1c(F)c(-c2cc(F)c(C(F)F)cc2F)nc(C(=O)O)c1Cl [Compound 178],75 to 84%

# Same assay, conditions: post-emergence, 336 h; ABUTH: velvetleaf (Abutilon theophrasti); application rate 140 g ai/ha; post-emergent; 14 days after application; read-out: Visual Growth Reduction (%) 14 Days After Application, ABUTH
row,SMILES,pest or weed control at 140 g/ha
1,Nc1c(F)c(-c2cc(F)c(C(F)F)cc2F)nc(C(=O)O)c1Cl [Compound 178],75 to 84%

# Same assay, conditions: post-emergence, 336 h; AMARE: redroot pigweed (Amaranthus retroflexus); application rate 70 g ai/ha; post-emergent; 14 days after application; read-out: Visual Growth Reduction (%) 14 Days After Application, AMARE
row,SMILES,pest or weed control at 70 g/ha
1,Nc1c(F)c(-c2cc(F)c(C(F)F)cc2F)nc(C(=O)O)c1Cl [Compound 178],95 to 100%

# Same assay, conditions: post-emergence, 336 h; AMARE: redroot pigweed (Amaranthus retroflexus); application rate 140 g ai/ha; post-emergent; 14 days after application; read-out: Visual Growth Reduction (%) 14 Days After Application, AMARE
row,SMILES,pest or weed control at 140 g/ha
1,Nc1c(F)c(-c2cc(F)c(C(F)F)cc2F)nc(C(=O)O)c1Cl [Compound 178],95 to 100%

# Same assay, conditions: post-emergence, 336 h; BRSNN: oilseed-rape, canola (Brassica napus); application rate 70 g ai/ha; post-emergent; 14 days after application; read-out: Visual Growth Reduction (%) 14 Days After Application, BRSNN
row,SMILES,pest or weed control at 70 g/ha
1,Nc1c(F)c(-c2cc(F)c(C(F)F)cc2F)nc(C(=O)O)c1Cl [Compound 178],95 to 100%

# Same assay, conditions: post-emergence, 336 h; BRSNN: oilseed-rape, canola (Brassica napus); application rate 140 g ai/ha; post-emergent; 14 days after application; read-out: Visual Growth Reduction (%) 14 Days After Application, BRSNN
row,SMILES,pest or weed control at 140 g/ha
1,Nc1c(F)c(-c2cc(F)c(C(F)F)cc2F)nc(C(=O)O)c1Cl [Compound 178],95 to 100%

# Same assay, conditions: post-emergence, 336 h; CHEAL: lambsquarters (Chenopodium album); application rate 70 g ai/ha; post-emergent; 14 days after application; read-out: Visual Growth Reduction (%) 14 Days After Application, CHEAL
row,SMILES,pest or weed control at 70 g/ha
1,Nc1c(F)c(-c2cc(F)c(C(F)F)cc2F)nc(C(=O)O)c1Cl [Compound 178],95 to 100%

# Same assay, conditions: post-emergence, 336 h; CHEAL: lambsquarters (Chenopodium album); application rate 140 g ai/ha; post-emergent; 14 days after application; read-out: Visual Growth Reduction (%) 14 Days After Application, CHEAL
row,SMILES,pest or weed control at 140 g/ha
1,Nc1c(F)c(-c2cc(F)c(C(F)F)cc2F)nc(C(=O)O)c1Cl [Compound 178],95 to 100%

# Same assay, conditions: post-emergence, 336 h; EPHHL: wild poinsettia (Euphorbia heterophylla); application rate 70 g ai/ha; post-emergent; 14 days after application; read-out: Visual Growth Reduction (%) 14 Days After Application, EPHHL
row,SMILES,pest or weed control at 70 g/ha
1,Nc1c(F)c(-c2cc(F)c(C(F)F)cc2F)nc(C(=O)O)c1Cl [Compound 178],85 to 94%

# Same assay, conditions: post-emergence, 336 h; EPHHL: wild poinsettia (Euphorbia heterophylla); application rate 140 g ai/ha; post-emergent; 14 days after application; read-out: Visual Growth Reduction (%) 14 Days After Application, EPHHL
row,SMILES,pest or weed control at 140 g/ha
1,Nc1c(F)c(-c2cc(F)c(C(F)F)cc2F)nc(C(=O)O)c1Cl [Compound 178],95 to 100%

# Same assay, conditions: post-emergence, 336 h; HELAN: sunflower (Helianthus annuus); application rate 70 g ai/ha; post-emergent; 14 days after application; read-out: Visual Growth Reduction (%) 14 Days After Application, HELAN
row,SMILES,pest or weed control at 70 g/ha
1,Nc1c(F)c(-c2cc(F)c(C(F)F)cc2F)nc(C(=O)O)c1Cl [Compound 178],95 to 100%

# Same assay, conditions: post-emergence, 336 h; HELAN: sunflower (Helianthus annuus); application rate 140 g ai/ha; post-emergent; 14 days after application; read-out: Visual Growth Reduction (%) 14 Days After Application, HELAN
row,SMILES,pest or weed control at 140 g/ha
1,Nc1c(F)c(-c2cc(F)c(C(F)F)cc2F)nc(C(=O)O)c1Cl [Compound 178],95 to 100%

# Same assay, conditions: post-emergence, 336 h; VIOTR: wild pansy (Viola tricolor); application rate 70 g ai/ha; post-emergent; 14 days after application; read-out: Visual Growth Reduction (%) 14 Days After Application, VIOTR
row,SMILES,pest or weed control at 70 g/ha
1,Nc1c(F)c(-c2cc(F)c(C(F)F)cc2F)nc(C(=O)O)c1Cl [Compound 178],30 to 44%

# Same assay, conditions: post-emergence, 336 h; VIOTR: wild pansy (Viola tricolor); application rate 140 g ai/ha; post-emergent; 14 days after application; read-out: Visual Growth Reduction (%) 14 Days After Application, VIOTR
row,SMILES,pest or weed control at 140 g/ha
1,Nc1c(F)c(-c2cc(F)c(C(F)F)cc2F)nc(C(=O)O)c1Cl [Compound 178],45 to 59%

# Test system: Key Grass and Sedge Weeds as well as Grass Crops
# Assay: Post-emergent Test II herbicidal activity (Table 6)
# Assay type: in vivo
# Settings: post-emergence, 336 h, CYPES: yellow nutsedge (Cyperus esculentus), application rate 70 g ai/ha, read-out: Visual Growth Reduction (%) 14 Days After Application, CYPES
# How it was run: as §1
row,SMILES,pest or weed control at 70 g/ha
1,Nc1c(F)c(-c2cc(F)c(C(F)F)cc2F)nc(C(=O)O)c1Cl [Compound 178],85 to 94%
